# Test results as given in publication PMC8945686, “Anticancer Effects with Molecular Docking Confirmation of Newly Synthesized Isatin Sulfonamide Molecular Hybrid Derivatives against Hepatic Cancer Cell Lines” (Biomedicines, 2022).
# Values joined by “and” are separate entries in the source; they are usually repeats but may differ in a detail not shown here. Equal values may be shown once.
# Tests used:
# RPE1 cells = test: In vitro safety/cell viability MTT assay on normal RPE1 cells; format: cell-based, human; conditions: RPE1, MTT, in words
# [1] = as above; format: cell-based, human; conditions: human, RPE1 cells (noncancerous), normal RPE1 cells, MTT
# [2] = system: urokinase Plasminogen Activator (uPA); test: uPA level in HepG2 cell lysate (ELISA); format: cell-based, human; conditions: HepG2 treated at IC50, 48 h
# Method: (§1) As previously described, with little modification, HepG2 cells were cultured in T25 flask until they reached 30% confluency. […] After treatment, cells were washed by PBS, trypsinized and centrifuged at 10,000 rpm. The formed pellets were washed twice with PBS and lysed in 1 mL ice-cold radio immunoprecipitation assay (RIPA) lysis buffer (50 mM Tris-HCl, pH 8.0, 150 mM NaCl, 1% Triton X-100, 0.5% sodium deoxycholate, 0.1% sodium dodecyl sulfate) and kept on ice for 20 min. Then, the mixture was centrifuged at 15,000 rpm for 15 min to remove any cell debris. The cell lysate was aliquoted and stored at −80 °C for determination of protein using Pierce BCA Protein Assay Kit (Thermo Fisher Scientific, Waltham/Boston, USA) according to manufacturer’s recommendations and determination of other biochemical parameters including EGFR, urokinase Plasminogen Activator (uPA), B-Cell Lymphoma-2 (Bcl-2), heparanase, and oxidative stress markers (glutathione; GSH and malonaldehyde; MDA).
# (§2) Levels of EGFR [37] and heparanase in cell lysate were investigated using commercially available enzyme-linked immunosorbent assay (ELISA) kits supplied by Abcam (Cat. No. ab269558, ab256401, respectively). Levels of uPA [39] were measured using ELISA kit supplied by Creative Diagnostics (New York, USA, Cat. No. DEIA1630). Bcl-2 levels were determined using ELISA kit supplied by Zymed Laboratories, Carlsbad, California (Cat. No. 99-0042). Briefly, standards and samples were added to corresponding 96-well plate coated with suitable antibody. After the washing step, biotinylated anti-human antibody was added to each well. After washing away unbound biotinylated antibody, horseradish peroxidase (HRP)-conjugated streptavidin was pipetted into each well. A peroxidase substrate solution was added to all wells, after washing, and the color developed was proportionate to the amount of EGFR bound. Finally, the stop solution was added and the color intensity was measured at 450 nm.
# heparanase = test: Heparanase level in HepG2 cell lysate (ELISA); format: cell-based, human; conditions: HepG2 treated at IC50, 48 h
# Method: as §1, §2
# [3] = system: B-Cell Lymphoma-2 (Bcl-2); test: Bcl-2 level in HepG2 cell lysate (ELISA); format: cell-based, human; conditions: HepG2 treated at IC50, 48 h
# Method: as §1, §2
# malonaldehyde (MDA) = test: MDA level in HepG2 cell lysate (TBA method); format: cell-based, human; conditions: HepG2 treated at IC50, 48 h
# Method: as §1
# Levels of MDA, the marker of lipid peroxidation, were measured by thiobarbituric acid (TBA) method. TBA reacts with MDA in an acidic medium at temperature of 95 °C for 30 min to form colored thiobarbituric acid reactive (TBAR) product, the absorbance of which was measured at 534 nm. The MDA kit was purchased from Biodiagnostics, Cairo, Egypt.
# HepG2 cells = test: Cell cycle analysis by flow cytometry (PI staining); format: cell-based, human; conditions: HepG2, 5 µM, 48 h
# Method: In 6-well plate, HepG2 (1 × 10^5 cells per well) were treated with either (0.1% DMSO) vehicle or 5 μM of 3a, 4b, and 4c compounds. After 48 h incubation, cells were harvested and fixed for 12 h using ice-cold 70% ethanol at 4 °C. Ethanol was removed and cells were washed by PBS and incubated for 30 min at 37 °C in 0.5 mL of PBS containing 1 mg/mL RNase. Then, cells were stained for 30 min with PI in the dark and the DNA content was determined using flow cytometer.
# mice = test: In vivo acute (14-day) oral toxicity study; conditions: for S.ALT / S.AST / S.Creatinine / S.D.Bilirubin / S.T.Bilirubin / S.Urea: 14 days after single dose, doxorubicin 15 mg/kg I.P; for S.ALT / S.AST / S.Creatinine / S.D.Bilirubin / S.T.Bilirubin / S.Urea / Histopathology of liver and kidney tissues (H and E) versus control groups / Kidney histology (H and E photomicrographs) / Liver histology (H and E photomicrographs): compounds 250 mg/kg oral; for Histopathology of liver and kidney tissues (H and E) versus control groups / Kidney histology (H and E photomicrographs) / Liver histology (H and E photomicrographs): Dox 15 mg/kg i.p.
# Text: GPower 3.0.10 software was used to estimate the sample size needed for the experiment and the number of mice per group but, according to the Organization for Economic Cooperation and Development (OECD) Test Guidelines No. 407 (OECD, 2008 and updated 2017) and under the International Academy of Science’s Guide for the Care and Use of Laboratory Animals, as well as the ARRIVE guidelines, to use the least number of mice per group for the acute single dose oral toxicity test.
# Animals were divided randomly into nine groups (5 animals per group). Before the experiment, the body weight (BW) of all mice was recorded. All mice were made to fast for 24 h and treated once (day zero) then carefully monitored for 14 days.
# Normal control group: mice received saline orally once;
# Negative control group: mice received vehicle (DMSO) orally once;
# Positive control group: mice were injected with Dox (15 mg/kg BW, i.p.) once.
# Isatin-sulfonamide-derivative-compound-treated groups (2a, 3a, 3d and 4b, 4c and 4d) of mice received 250 mg/kg BW of each orally once.
# The animals’ BWs were recorded at the end of the 14 days of observation. Blood samples were collected from the retro-orbital plexus and allowed to clot. Sera were prepared by centrifugation at 4000 rpm for 15 min and then kept frozen at − 80 °C for liver and kidney function tests (LFTs and KFTs). Thereafter, mice were deprived of food overnight, euthanized, and sacrificed by cervical dislocation. Liver and kidney tissues were collected, washed with ice-cold saline, and weighed. Excised weighed livers and kidneys were fixed in a suitable buffer for histological examination.
# Liver and kidney tissues were fixed in 10% neutral buffered formaldehyde overnight and then embedded in paraffin, […] in serial grades of alcohols, cleared in xylene, and were subjected to […], where 4 μm thick tissue sections were cut by rotatory microtome. Tissue sections were stained with hematoxylin and eosin (H and E) for histological examination using full HD light microscopic imaging system (Leica Microsystems GmbH, Wetzlar, Germany). Standard procedures for sample fixation and staining were done as previously described.
Structure (SMILES),Heparanase level in cell lysate (heparanase),Bcl-2 level in cell lysate [3],%Cell Cycle Arrest/Phase %G0-G1 (HepG2 cells),%Cell Cycle Arrest/Phase %G2-M (HepG2 cells),%Cell Cycle Arrest/Phase %S (HepG2 cells),%Cell Cycle Arrest/Phase %pre-G1 (HepG2 cells),S.ALT (mice),S.AST (mice),S.Creatinine (mice),S.D.Bilirubin (mice),S.T.Bilirubin (mice),S.Urea (mice),Histopathology of liver and kidney tissues (H and E) versus control groups (mice; 14 days),Kidney histology (H and E photomicrographs) (mice; 14 days),Liver histology (H and E photomicrographs) (mice; 14 days),further results
"CC(=O)Nc1ccc(C(=O)C=C2C(=O)Nc3ccc(S(=O)(=O)N4CCCCC4)cc32)cc1 [Compound 4b, N-(4-(2-(2-oxo-5-(piperidin-1-ylsulfonyl)indolin-3-ylidene)acetyl)phenyl)acetamide]","1827 ± 30 pmol/mg protein and 1827 ± 30 ^a*^, b* pmol/mg protein","2.5 ± 0.04 nmol/mg protein and 2.5 ± 0.04 ^a,b* nmol/mg protein",41.25%,5.49%,53.26%,28.14%,27.95 ± 0.34 ^^ U/L,35.18 ± 0.47 ^^ U/L,0.88 ± 0.06 ^^ mg/dL,0.17 ± 0.001 ^^ mg/dL,0.70 ± 0.013 ^^ mg/dL,62.60 ± 3.64 ^^ mg/dL,no differences in the hepatic or renal tissue structures,almost intact histological features of renal parenchyma,apparently intact hepatocytes,"Effect towards the noncancerous cell line (RPE1) (RPE1 cells): non-cytotoxic effect; CC50 at 48 h [1]: > 100 µM; viability at 48 h, 100 p.p.m (μg/mL) ([1]; 100 p.p.m (μg/mL)): 66.4%; uPA level in cell lysate [2]: 1916 ± 40 nmol/mg protein and 1916 ± 40 ^a*^,b* nmol/mg protein; MDA level in cell lysate (malonaldehyde (MDA)): 3.7 ± 0.4 µmol/mg protein and 3.7 ± 0.4 ^a*^,b* µmol/mg protein; Survival over the treatment period (14 days) (mice; single acute oral dose of 250 mg/kg): survived; Physical or abnormal changes (body weight, skin, fur, eyes, behavior, overall appearance) (mice; single acute oral dose of 250 mg/kg, 14 days): No physical or abnormal changes were observed"
"COc1cccc2c1C(=O)c1c(O)c3c(c(O)c1C2=O)C[C@@](O)(C(=O)CO)C[C@@H]3O[C@H]1C[C@H](N)[C@H](O)[C@H](C)O1 [Doxorubicin, reference compound]",902.1 ± 21 ^a* pmol/mg protein,1.7 ± 0.10 ^a* nmol/mg protein,29.74%,39%,31.26%,42.38%,"52.97 ± 0.92 *^,# U/L","46.93 ± 0.30 *^,# U/L","1.57 ± 0.02 *^,# mg/dL","0.36 ± 0.026 *^,# mg/dL",1.45 ± 0.072 mg/dL,"83.27 ± 0.95 *^,# mg/dL",hepatic and renal pathology were obvious,dilatation of the cortical tubular segments,hepatocellular necrotic changes,uPA level in cell lysate ([2]; listed as Dox): 1244 ± 18 nmol/mg protein; uPA level in cell lysate ([2]; listed as Positive): 1244 ± 18 ^a* nmol/mg protein; MDA level in cell lysate (malonaldehyde (MDA); listed as Dox): 18.5 ± 1.5 µmol/mg protein; MDA level in cell lysate (malonaldehyde (MDA); listed as Positive): 18.5 ± 1.5 ^a* µmol/mg protein
